We go through 1 compound from publication PMC3416681, “The orthosteric agonist 2-chloro-5-hydroxyphenylglycine activates mGluR5 and mGluR1 with similar efficacy and potency” (2012).

A word on the EC50: it is the concentration at which the effect is half-maximal.

Molecules are shown by their SMILES.

In assay [1] the target is T1, mGluR5b (Rattus norvegicus, UniProt P31424).
T1 construct: gene Grm5; splice variant mGluR5b
The experiment in a line: whole-cell patch clamp, calcium current inhibition in SCG neurons expressing the receptor. The assay is classed as cell-based. In general terms: Patch clamp records ionic current or voltage across a cell membrane.

In assay [2] the target is T2, mGluR1a (Rattus norvegicus, UniProt P23385).
T2 construct: gene Grm1; splice variant mGluR1a (untagged and N-terminally myc-tagged, data combined)
The assay is described as above. The assay is classed as cell-based.

T2 sequence (P23385 19-1199): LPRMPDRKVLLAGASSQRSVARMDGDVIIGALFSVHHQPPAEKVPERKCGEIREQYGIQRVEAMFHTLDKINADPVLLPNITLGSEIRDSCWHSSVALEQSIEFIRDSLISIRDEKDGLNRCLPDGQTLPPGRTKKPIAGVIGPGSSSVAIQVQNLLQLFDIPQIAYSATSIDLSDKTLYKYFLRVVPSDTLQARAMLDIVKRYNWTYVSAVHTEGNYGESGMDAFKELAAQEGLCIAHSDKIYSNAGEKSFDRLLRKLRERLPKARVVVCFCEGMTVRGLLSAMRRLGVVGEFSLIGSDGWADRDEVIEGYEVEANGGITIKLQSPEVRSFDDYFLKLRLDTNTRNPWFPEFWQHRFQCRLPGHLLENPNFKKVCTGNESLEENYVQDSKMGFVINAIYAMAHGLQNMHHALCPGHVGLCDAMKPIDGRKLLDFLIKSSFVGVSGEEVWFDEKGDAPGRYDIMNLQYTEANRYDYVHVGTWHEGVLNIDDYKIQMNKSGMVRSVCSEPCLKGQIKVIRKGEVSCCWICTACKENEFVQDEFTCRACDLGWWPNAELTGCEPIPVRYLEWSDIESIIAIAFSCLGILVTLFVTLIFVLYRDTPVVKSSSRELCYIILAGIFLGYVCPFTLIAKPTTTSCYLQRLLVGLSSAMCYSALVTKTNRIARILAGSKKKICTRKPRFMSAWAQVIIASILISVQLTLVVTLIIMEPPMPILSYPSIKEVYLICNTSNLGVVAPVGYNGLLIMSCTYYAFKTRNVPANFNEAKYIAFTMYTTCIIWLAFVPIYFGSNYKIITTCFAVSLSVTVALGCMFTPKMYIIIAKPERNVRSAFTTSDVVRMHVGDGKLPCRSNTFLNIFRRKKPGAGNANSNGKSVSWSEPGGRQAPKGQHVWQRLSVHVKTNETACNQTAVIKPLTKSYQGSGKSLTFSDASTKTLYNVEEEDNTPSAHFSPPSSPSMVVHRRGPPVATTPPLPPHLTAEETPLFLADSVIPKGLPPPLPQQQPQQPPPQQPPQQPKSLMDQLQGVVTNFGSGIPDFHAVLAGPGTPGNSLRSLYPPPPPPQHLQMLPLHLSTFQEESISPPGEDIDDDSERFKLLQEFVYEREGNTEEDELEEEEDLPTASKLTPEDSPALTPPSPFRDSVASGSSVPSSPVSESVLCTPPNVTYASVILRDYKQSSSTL
T1 sequence (P31424 21-1203): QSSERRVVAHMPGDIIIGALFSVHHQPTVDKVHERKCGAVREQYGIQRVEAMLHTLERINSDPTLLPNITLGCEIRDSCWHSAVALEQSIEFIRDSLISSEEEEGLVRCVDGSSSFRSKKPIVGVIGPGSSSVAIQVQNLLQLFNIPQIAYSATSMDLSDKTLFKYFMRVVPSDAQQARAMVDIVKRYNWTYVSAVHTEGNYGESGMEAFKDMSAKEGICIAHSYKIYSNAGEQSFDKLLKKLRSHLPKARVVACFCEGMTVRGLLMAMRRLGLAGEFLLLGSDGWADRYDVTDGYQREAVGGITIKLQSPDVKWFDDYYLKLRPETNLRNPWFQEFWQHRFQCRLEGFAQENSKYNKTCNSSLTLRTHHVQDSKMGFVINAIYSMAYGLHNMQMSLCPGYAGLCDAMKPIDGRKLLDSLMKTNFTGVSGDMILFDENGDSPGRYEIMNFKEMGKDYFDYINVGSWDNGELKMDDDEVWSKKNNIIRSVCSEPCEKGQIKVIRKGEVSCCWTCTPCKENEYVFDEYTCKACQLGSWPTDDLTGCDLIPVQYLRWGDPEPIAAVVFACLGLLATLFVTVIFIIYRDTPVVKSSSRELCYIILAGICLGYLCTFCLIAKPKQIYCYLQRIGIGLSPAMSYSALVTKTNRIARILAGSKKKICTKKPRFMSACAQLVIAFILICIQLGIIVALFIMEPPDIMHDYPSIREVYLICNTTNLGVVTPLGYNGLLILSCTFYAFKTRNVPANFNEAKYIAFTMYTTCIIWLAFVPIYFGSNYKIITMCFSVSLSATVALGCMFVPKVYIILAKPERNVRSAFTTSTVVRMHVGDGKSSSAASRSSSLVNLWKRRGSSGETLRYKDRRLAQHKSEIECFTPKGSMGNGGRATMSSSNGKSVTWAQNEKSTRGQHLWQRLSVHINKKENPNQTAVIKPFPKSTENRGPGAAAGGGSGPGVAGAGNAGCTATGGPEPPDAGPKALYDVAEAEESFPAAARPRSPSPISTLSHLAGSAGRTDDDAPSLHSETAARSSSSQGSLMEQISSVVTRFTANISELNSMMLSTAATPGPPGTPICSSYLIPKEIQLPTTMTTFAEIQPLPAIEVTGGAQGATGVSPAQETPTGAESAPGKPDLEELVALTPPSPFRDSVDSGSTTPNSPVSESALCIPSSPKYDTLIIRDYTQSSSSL

`NC(C(=O)O)c1cc(O)ccc1Cl` (racemic) [CHPG, 2-Chloro-5-hydroxyphenylglycine]: the EC50 in assay [1] amounted to 57 µM; in assay [2], 80 µM.
